Experimental data taken from publication PMC8182759, “Cryo-Electron Microscopy of Arabidopsis thaliana Phytochrome A in Its Pr State Reveals Head-to-Head Homodimeric Architecture” (Frontiers in Plant Science, 2021).

Columns and labels:
[1] = molecular target: T1, AtphyA (Arabidopsis thaliana phytochrome A, full length) (Arabidopsis thaliana, UniProt P14712); assay: zinc-induced bilin fluorescence on denaturing gel; UV/vis absorbance and photoconversion; format: binding; conditions: covalent; bilin attached to a cysteine of the GAF domain; assembled during co-expression in E. coli with heme oxygenase/PcyA; purified at pH 8.0
T1 construct: gene PHYA; full length, residues 1-1122, C-terminal hexahistidine tag kept; E. coli BL21(DE3) LOBSTR, plasmid pDG388 co-expressing Synechocystis heme oxygenase and PcyA; homodimer (dimer/monomer mixture at pH 9.3)
T1 sequence (P14712 1-1122): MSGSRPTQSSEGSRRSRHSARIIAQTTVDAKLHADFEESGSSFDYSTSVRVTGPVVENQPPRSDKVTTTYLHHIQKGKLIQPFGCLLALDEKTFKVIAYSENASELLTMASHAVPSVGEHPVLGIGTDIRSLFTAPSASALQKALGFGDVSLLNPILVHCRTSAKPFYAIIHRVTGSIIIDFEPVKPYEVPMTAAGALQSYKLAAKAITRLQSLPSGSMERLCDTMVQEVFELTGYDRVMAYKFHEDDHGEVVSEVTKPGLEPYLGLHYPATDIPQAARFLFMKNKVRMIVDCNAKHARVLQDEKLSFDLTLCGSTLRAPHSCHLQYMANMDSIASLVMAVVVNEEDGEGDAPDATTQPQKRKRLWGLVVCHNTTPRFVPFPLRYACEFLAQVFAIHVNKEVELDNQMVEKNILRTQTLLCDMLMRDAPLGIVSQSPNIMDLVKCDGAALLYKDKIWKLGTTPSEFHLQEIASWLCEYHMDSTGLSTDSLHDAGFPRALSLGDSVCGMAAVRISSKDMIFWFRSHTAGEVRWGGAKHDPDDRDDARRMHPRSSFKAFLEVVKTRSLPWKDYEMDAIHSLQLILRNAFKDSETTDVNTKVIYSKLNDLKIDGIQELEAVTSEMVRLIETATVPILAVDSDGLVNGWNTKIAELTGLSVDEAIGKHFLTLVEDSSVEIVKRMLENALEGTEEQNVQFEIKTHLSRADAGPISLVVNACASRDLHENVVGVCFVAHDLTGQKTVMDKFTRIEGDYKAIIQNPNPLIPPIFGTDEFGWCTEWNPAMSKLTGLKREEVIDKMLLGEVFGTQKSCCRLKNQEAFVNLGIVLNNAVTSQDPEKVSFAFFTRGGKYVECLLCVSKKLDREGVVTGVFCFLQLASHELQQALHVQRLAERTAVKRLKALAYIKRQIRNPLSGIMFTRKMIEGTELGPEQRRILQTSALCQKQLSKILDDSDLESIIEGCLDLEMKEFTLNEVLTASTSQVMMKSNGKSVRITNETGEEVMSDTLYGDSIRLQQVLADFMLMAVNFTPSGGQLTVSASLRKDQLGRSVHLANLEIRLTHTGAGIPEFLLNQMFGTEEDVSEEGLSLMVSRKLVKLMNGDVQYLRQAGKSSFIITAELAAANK

[2] = molecular target: the molecule itself; assay: cryo-EM structure; single-particle cryo-EM of AtphyA purified at pH 9.3, Pr state (730 nm pre-illumination), 1-1.5 mg/ml, 136,173 particles, refinement with 2-fold symmetry, ~17 Å

## C/C=C1/C(=C/c2[nH]c(/C=C3N=C(/C=C4\NC(=O)C(CC)=C4C)C(C)=C\3CCC(=O)O)c(CCC(=O)O)c2C)NC(=O)[C@@H]1C [phycocyanobilin]
[1]
  zinc-induced bilin fluorescence on denaturing gel; UV/vis absorbance and photoco: full-length AtphyA could be obtained with covalently attached PCB, as detected by zinc-induced bilin fluorescence

B1: Arabidopsis thaliana phytochrome A (receptor, UniProt P14712 1-1122, looked up)
chain: MSGSRPTQSSEGSRRSRHSARIIAQTTVDAKLHADFEESGSSFDYSTSVRVTGPVVENQPPRSDKVTTTYLHHIQKGKLIQPFGCLLALDEKTFKVIAYSENASELLTMASHAVPSVGEHPVLGIGTDIRSLFTAPSASALQKALGFGDVSLLNPILVHCRTSAKPFYAIIHRVTGSIIIDFEPVKPYEVPMTAAGALQSYKLAAKAITRLQSLPSGSMERLCDTMVQEVFELTGYDRVMAYKFHEDDHGEVVSEVTKPGLEPYLGLHYPATDIPQAARFLFMKNKVRMIVDCNAKHARVLQDEKLSFDLTLCGSTLRAPHSCHLQYMANMDSIASLVMAVVVNEEDGEGDAPDATTQPQKRKRLWGLVVCHNTTPRFVPFPLRYACEFLAQVFAIHVNKEVELDNQMVEKNILRTQTLLCDMLMRDAPLGIVSQSPNIMDLVKCDGAALLYKDKIWKLGTTPSEFHLQEIASWLCEYHMDSTGLSTDSLHDAGFPRALSLGDSVCGMAAVRISSKDMIFWFRSHTAGEVRWGGAKHDPDDRDDARRMHPRSSFKAFLEVVKTRSLPWKDYEMDAIHSLQLILRNAFKDSETTDVNTKVIYSKLNDLKIDGIQELEAVTSEMVRLIETATVPILAVDSDGLVNGWNTKIAELTGLSVDEAIGKHFLTLVEDSSVEIVKRMLENALEGTEEQNVQFEIKTHLSRADAGPISLVVNACASRDLHENVVGVCFVAHDLTGQKTVMDKFTRIEGDYKAIIQNPNPLIPPIFGTDEFGWCTEWNPAMSKLTGLKREEVIDKMLLGEVFGTQKSCCRLKNQEAFVNLGIVLNNAVTSQDPEKVSFAFFTRGGKYVECLLCVSKKLDREGVVTGVFCFLQLASHELQQALHVQRLAERTAVKRLKALAYIKRQIRNPLSGIMFTRKMIEGTELGPEQRRILQTSALCQKQLSKILDDSDLESIIEGCLDLEMKEFTLNEVLTASTSQVMMKSNGKSVRITNETGEEVMSDTLYGDSIRLQQVLADFMLMAVNFTPSGGQLTVSASLRKDQLGRSVHLANLEIRLTHTGAGIPEFLLNQMFGTEEDVSEEGLSLMVSRKLVKLMNGDVQYLRQAGKSSFIITAELAAANK
modifications: covalently attached phycocyanobilin (PCB) chromophore
notes: Studied in the Pr state after 730 nm illumination; A plasmid map of pDG388 is in the Supplementary Material; No removal of the His tag is described; also called AtphyA; phyA; source: E. coli BL21(DE3) LOBSTR, purified (Ni-NTA IMAC, SEC), coexpressed with Synechocystis sp. heme oxygenase and PcyA
[2]
  stoichiometry N: 2
